Laboratory results from the supplement of paper PMC10307832.

Tests used:
Test in all cases: relative viability (nuclei count vs DMSO), 5 days (fraction); higher = more cells survive
NCI-H596 = system: NCI-H596
How it was run: (§1)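 Values are medians from duplicate plates. Each reflects relative viability, defined as the nuclei count of treated wells over that of vehicle wells. Lung cancer cell lines in 1536-well plates were pin-tool dosed one day after seeding with one drug alone or with a fixed anchor-drug dose plus five library-drug doses (not always all listed) in √10 steps, then fixed, stained and imaged at 4× after 5 days.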

H3255 = system: H3255
How it was run: as §1

NCI-H1650 = system: NCI-H1650
How it was run: as §1

SK-LU-1 = system: SK-LU-1
How it was run: as §1

NCI-H3122 = system: NCI-H3122
How it was run: as §1

NCI-H322M = system: NCI-H322M
How it was run: as §1

NCI-H1755 = system: NCI-H1755
How it was run: as §1

NCI-H23 = system: NCI-H23
How it was run: as §1

HCC-78 = system: HCC-78
How it was run: as §1

NCI-H2087 = system: NCI-H2087
How it was run: as §1

201T = system: 201T
How it was run: as §1

NCI-H650 = system: NCI-H650
How it was run: as §1

NCI-H2085 = system: NCI-H2085
How it was run: as §1

HCC-366 = system: HCC-366
How it was run: as §1

LU99A = system: LU99A
How it was run: as §1

COR-L23 = system: COR-L23
How it was run: as §1

HARA = system: HARA
How it was run: as §1

NCI-H1651 = system: NCI-H1651
How it was run: as §1

PC-3 [JPC-3] = system: PC-3 [JPC-3]
How it was run: as §1

NCI-H460 = system: NCI-H460
How it was run: as §1

Work on `CN1CCN(CCOc2cc(OC3CCOCC3)c3c(Nc4c(Cl)ccc5c4OCO5)ncnc3c2)CC1` [Saracatinib] + CC(C)C[C@H](NC(=O)[C@H](Cc1ccccc1)NC(=O)c1cnccn1)B(O)O [Bortezomib] (partner 0.002 µM) yielded a relative viability (NCI-H596; first compound 0.02 µM) of 0.98, a relative viability (NCI-H596; first compound 0.2 µM) of 0.999 and a relative viability (NCI-H596; first compound 0.6325 µM) of 1.01. For the same compound, the relative viability (NCI-H596; first compound 2 µM) was 0.814, the relative viability (H3255; first compound 0.02 µM) was 0.864 and the relative viability (H3255; first compound 0.2 µM) was 0.892. For the same compound, the relative viability (H3255; first compound 0.6325 µM) was 0.812, the relative viability (H3255; first compound 2 µM) was 0.272 and the relative viability (NCI-H1650; first compound 0.02 µM) was 0.179. The relative viability (NCI-H1650; first compound 0.2 µM) was 0.192, the relative viability (NCI-H1650; first compound 0.6325 µM) was 0.24 and the relative viability (NCI-H1650; first compound 2 µM) was 0.206. For the same compound, the relative viability (SK-LU-1; first compound 0.02 µM) was 1.31, the relative viability (SK-LU-1; first compound 0.2 µM) was 1.19 and the relative viability (SK-LU-1; first compound 0.6325 µM) was 0.829. The relative viability (SK-LU-1; first compound 2 µM) was 0.735, the relative viability (NCI-H3122; first compound 0.02 µM) was 1.05 and the relative viability (NCI-H3122; first compound 0.6325 µM) was 0.964. The relative viability (NCI-H3122; first compound 2 µM) was 0.815, the relative viability (NCI-H322M; first compound 0.02 µM) was 1.23 and the relative viability (NCI-H322M; first compound 0.2 µM) was 1.14. It also gave a relative viability (NCI-H322M; first compound 0.6325 µM) of 1.23, a relative viability (NCI-H322M; first compound 2 µM) of 0.988 and a relative viability (NCI-H1755; first compound 0.02 µM) of 1.02. The relative viability (NCI-H1755; first compound 0.2 µM) was 0.792, the relative viability (NCI-H1755; first compound 0.6325 µM) was 1.08 and the relative viability (NCI-H1755; first compound 2 µM) was 0.83. For the same compound, the relative viability (NCI-H23; first compound 0.02 µM) was 1.09, the relative viability (NCI-H23; first compound 0.6325 µM) was 0.95 and the relative viability (NCI-H23; first compound 2 µM) was 1.12. The relative viability (HCC-78; first compound 0.02 µM) was 0.505, the relative viability (HCC-78; first compound 0.2 µM) was 0.513 and the relative viability (HCC-78; first compound 0.6325 µM) was 0.583. The relative viability (HCC-78; first compound 2 µM) was 0.357, the relative viability (NCI-H2087; first compound 0.02 µM) was 0.87 and the relative viability (NCI-H2087; first compound 0.2 µM) was 0.608. It also gave a relative viability (NCI-H2087; first compound 0.6325 µM) of 0.856, a relative viability (NCI-H2087; first compound 2 µM) of 0.711 and a relative viability (201T; first compound 0.02 µM) of 1.07. For the same compound, the relative viability (201T; first compound 0.2 µM) was 1, the relative viability (201T; first compound 0.6325 µM) was 1.04 and the relative viability (201T; first compound 2 µM) was 0.848. The relative viability (NCI-H650; first compound 0.02 µM) was 0.925, the relative viability (NCI-H650; first compound 0.2 µM) was 0.751 and the relative viability (NCI-H650; first compound 0.6325 µM) was 0.947. The relative viability (NCI-H650; first compound 2 µM) was 0.799, the relative viability (NCI-H2085; first compound 0.02 µM) was 1.07 and the relative viability (NCI-H2085; first compound 0.2 µM) was 0.91. It also gave a relative viability (NCI-H2085; first compound 0.6325 µM) of 1.13, a relative viability (NCI-H2085; first compound 2 µM) of 1.11 and a relative viability (HCC-366; first compound 0.02 µM) of 1.04. For the same compound, the relative viability (HCC-366; first compound 0.6325 µM) was 0.935, the relative viability (HCC-366; first compound 2 µM) was 0.769 and the relative viability (LU99A; first compound 0.02 µM) was 1.1. For the same compound, the relative viability (LU99A; first compound 0.2 µM) was 1, the relative viability (LU99A; first compound 0.6325 µM) was 1.13 and the relative viability (LU99A; first compound 2 µM) was 0.942. It also gave a relative viability (COR-L23; first compound 0.02 µM) of 0.98, a relative viability (COR-L23; first compound 0.2 µM) of 0.723 and a relative viability (COR-L23; first compound 0.6325 µM) of 1.09. The relative viability (COR-L23; first compound 2 µM) was 1.05, the relative viability (HARA; first compound 0.02 µM) was 1.12 and the relative viability (HARA; first compound 0.6325 µM) was 1.08. The relative viability (HARA; first compound 2 µM) was 0.602, the relative viability (NCI-H1651; first compound 0.02 µM) was 0.962 and the relative viability (NCI-H1651; first compound 0.2 µM) was 0.775. The relative viability (NCI-H1651; first compound 0.6325 µM) was 1, the relative viability (NCI-H1651; first compound 2 µM) was 0.844 and the relative viability (PC-3 [JPC-3]; first compound 0.02 µM) was 0.905. For the same compound, the relative viability (PC-3 [JPC-3]; first compound 0.2 µM) was 0.721, the relative viability (PC-3 [JPC-3]; first compound 0.6325 µM) was 0.778 and the relative viability (PC-3 [JPC-3]; first compound 2 µM) was 0.486. It also gave a relative viability (NCI-H460; first compound 0.02 µM) of 1.05, a relative viability (NCI-H460; first compound 0.2 µM) of 0.51 and a relative viability (NCI-H460; first compound 0.6325 µM) of 1.12. It also gave a relative viability (NCI-H460; first compound 2 µM) of 1.03.
